Measurements from patent US12377068B2, “In vitro and xenograft anti-tumor activity of a halogenated-xanthene against refractory pediatric solid tumors” (Provectus Pharmatech, Inc., priority 2018, dated 2025).

Assays:
[1] = test system: SK-N-AS; experiment: combination studies with PV-10, alamar Blue; format: cell-based; settings: in combination with 50 μM PV-10, 96 hours
Description: (§1) Cells were cultured as described for cytotoxicity assays. A dilution series of three test drugs (doxorubicin, etoposide, vincristine) were prepared in DMEM containing either PBS (vehicle control) or PV10 (50 µM final) and added to cells in triplicate. Plates were cultured, washed and cell viability analyzed by alamar Blue®, as described for cytotoxicity assays. Combination indices (CI) for IC50 of test drug in combination with 50 µM PV-10 were calculated using CompuSyn software (ComboSyn Inc.). CI values were scored according to the following criteria CI<1 indicated synergistic activity, CI=1 indicated additive activity and CI>1 indicated […].

[2] = test system: SK-N-MC; experiment: combination studies with PV-10, alamar Blue; format: cell-based; settings: in combination with 50 μM PV-10, 96 hours
Description: as §1

[3] = test system: SK-N-BE(2); experiment: combination studies with PV-10, alamar Blue; format: cell-based; settings: in combination with 50 μM PV-10, 96 hours
Description: as §1

[4] = test system: IMR5; experiment: combination studies with PV-10, alamar Blue; format: cell-based; settings: IMR5, in combination with 50 μM PV-10, 96 hours
Description: as §1

[5] = test system: SK-N-AS, SK-N-BE (2), IMR5 and SK-N-MC cells; experiment: combination studies with PV-10, summary over cell lines; format: cell-based; settings: in combination, 96 hours
Description: as §1

[6] = rat; cited from earlier work

Row | SMILES | combination index (CI) for IC50 of test drug [1] | combination index (CI) for IC50 of test drug [2] | combination index (CI) for IC50 of test drug [3] | combination index (CI) for IC50 of test drug [4] | CI values, range over the cell lines [5] | in vivo biological lifetime [6]
1 | COc1cccc2c1C(=O)c1c(O)c3c(c(O)c1C2=O)C[C@@](O)(C(=O)CO)C[C@@H]3O[C@H]1C[C@H](N)[C@H](O)[C@H](C)O1 [Doxorubicin, doxorubicin] | 0.77 | 0.42 | 0.72 | 0.38 | 0.42-0.77 | 
2 | COc1cc([C@@H]2c3cc4c(cc3[C@@H](O[C@@H]3O[C@@H]5CO[C@@H](C)O[C@H]5[C@H](O)[C@H]3O)[C@H]3COC(=O)[C@H]23)OCO4)cc(OC)c1O [Etoposide, etoposide] | 0.17 | 0.58 | 0.66 | 0.65 | 0.17-0.66 | 
3 | O=C([O-])c1c(Cl)c(Cl)c(Cl)c(Cl)c1-c1c2cc(I)c(=O)c(I)c-2oc2c(I)c([O-])c(I)cc12.[Na+].[Na+] [Rose Bengal, 4,5,6,7-tetrachloro-2′,4′,5′,7′-tetraiodofluorescein disodium] |  |  |  |  |  | a few minutes
4 | CC[C@]1(O)C[C@H]2CN(CCc3c([nH]c4ccccc34)[C@@](C(=O)OC)(c3cc4c(cc3OC)N(C=O)[C@H]3[C@@](O)(C(=O)OC)[C@H](OC(C)=O)[C@]5(CC)C=CCN6CC[C@]43[C@@H]65)C2)C1 [Vincristine, vincristine] | 0.35 | 0.43 | 0.1 | 0.2 | 0.1-0.43 | 
